Laboratory results from PMC4336141, “Repurposing Auranofin as a Lead Candidate for Treatment of Lymphatic Filariasis and Onchocerciasis” (PLoS Neglected Tropical Diseases, 2015).
Entries after “also recorded” stand apart in the source; their conditions may differ.

Assays:
adult female B. pahangi = experiment: Transmission electron microscopy of treated adult female B. pahangi; format: cell-based, Brugia pahangi; settings: flubendazole 10 μM overnight, positive control
Protocol: Adult female B. pahangi worms were incubated with either 1 μM, 0.3 μM, or 0.1 μM auranofin, 10 μM flubendazole (as a positive control), or 1% DMSO overnight, then cut into 3 segments separating the anterior, middle and posterior sections. The middle sections were further cut into 1 mm sized pieces in fixative (2.5% glutaraldehyde and 2% paraformaldehyde in 0.1 M sodium cacodylate buffer, pH 7.3–7.4) and stored at 4°C. Middle sections were subsequently treated with 1% tannic acid for 1 hour, followed by three buffer washes before post fixation staining with 2% osmium tetroxide for 1 hour. The samples were washed three times in buffer before dehydration in an ethanol series. Worm sections were then infiltrated with propylene oxide, embedded in epon 812 resin and polymerized in a vacuum oven at 60°C overnight. Ultrathin sections were cut using an RMC MTX ultramicrotome with a Diatome diamond knife followed by post staining of the grids with saturated ethanolic uranyl acetate and Reynolds lead citrate. Samples were imaged on a FEI Tecnai 12 spirit TEM operated at 80 kV. A similar procedure was performed on adult female O. ochengi worm masses that were cultured for 7 days with 10 μM auranofin before fixation of cut pieces of the adult female mass. Untreated adult female masses cultured for 7 days and fixed by the same procedure served as the control.

[1] = test system: Recombinant B. malayi TrxR (rBmTrxR); experiment: Recombinant B. malayi TrxR (rBmTrxR) DTNB inhibition assay; format: biochemical, Brugia malayi
Protocol: Recombinant 6-His-tagged B. malayi TrxR (rBmTrxR) was produced in E. coli BL21(DE3) in the presence of pSUABC [29] in LB medium supplemented with 20 μg/mL riboflavin under conditions for optimal selenoprotein expression. An overnight starter culture in LB with 50 μg/mL ampicillin and 34 μg/mL chloramphenicol was diluted (1:100) into in LB medium with the same antibiotics. When the culture reached an OD600 = 0.8, the medium was supplemented with 5 μM sodium selenite and 100 μg/mL L-cysteine. When the culture OD600 = 2, riboflavin (20 μg/mL) was added and protein expression was induced by the addition of isopropyl β-D-1-thiogalactopyranoside (50 μM). At this point the cultures were shifted to 24°C and incubated for 24 hr. Cells were collected by centrifugation, lysed by alternative freeze-thaw cycles, and resuspended in lysis buffer (50 mM potassium phosphate, pH 7.8, 500 mM NaCl, 30 mM imidazole, 1 mg/mL lysozyme, 1 mM phenylmethanesulfonylfluoride) supplemented with 100 μM flavin adenine dinucleotide. The sample was sonicated and cellular debris pelleted at 25,000 x g at 4°C for 25 min. The supernatant was collected and filtered through a 0.45 μm filter before purification by immobilized metal ion affinity chromatography using a His-Trap FF column (GE Healthcare). The column was washed with 10 column volumes binding buffer (50 mM potassium phosphate, pH 7.8, 500 mM NaCl, 30 mM imidazole) and then with 5 column volumes of buffer A (binding buffer with 100 mM imidazole). TrxR protein was eluted in 3 × 1 mL buffer B (binding buffer with 500 mM imidazole).Protein was concentrated (Amicon Ultra-4 10K) and purity was verified by SDS-PAGE and quantified by absorbance at 280 nm (ε = 69.76 mM^-1 cm^-1).
rBmTrxR activity was assayed in 0.1 M potassium phosphate (pH 7.2) with 10 mM EDTA and 25 nM rBmTrxR. rBmTxrR was pre-incubated for 20 min with NADPH (100 μM) and auranofin (ICN Pharmaceuticals, now Valeant Pharmaceuticals, Bridgewater, NJ) or aurothioglucose (USP Reference Standards, Rockville, MD) in DMSO in 100 μL, followed by addition of an equal volume of buffer with NADPH (200 μM) and DTNB (6 mM) with reaction progress monitored at λ = 412 nm for TNB production. The concentration of DMSO in all reactions was 3.5%.

| Compound | ultrastructure (TEM) of adult female B. pahangi (adult female B. pahangi) | mode of inhibition of rBmTrxR [1] | IC50 ([1]; 25 nM rBmTrxR, 20 min pre-incubation with NADPH, DTNB substrate) [nM] |
| --- | --- | --- | --- |
| COC(=O)Nc1nc2cc(C(=O)c3ccc(F)cc3)ccc2[nH]1 [flubendazole] | normal Wolbachia with very few mitochondria containing dark bodies; also recorded: did not cause vacuolization but only minor changes to the mitochondria | – | – |
| aurothioglucose | – | irreversibly inhibit rBmTrxR at a one-to-one molar ratio | 9 |
